# Laboratory results: patent US20200392116A1, “SUBSTITUTED HETEROCYCLES AS c-MYC TARGETING AGENTS” (NORTHWESTERN UNIVERSITY, priority 2019, published 2020)
# Where two headings read alike, the source gives them in different places.
# Assays:
# [1] = Potency code of Table 2 (assay not stated)
# MycCap cells = assay: Cell viability of MycCap cells; type: cell-based
# PC12 cells = assay: Cell viability / proliferation of PC12 cells (MTS); type: cell-based
# Protocol: (§1) PC3 prostate cancer cell line with high Myc level and PC12 pheochromocytoma tumor cell line with non functional Max protein, which is not dependent on Myc-Max complex, were phased from ATCC. Cells were plated in 96 well plate at 1000 cells per well, and Myc inhibitor 361 at various concentrations was added to the cells next day. After 3 days of treatment, fresh medium with 361 were added again, and cell viability was measured by MTS assay at day 5 after the treatment. (See FIG. 11).
# [2] = tested on: MYC WT and MYC KO rat fibroblasts; assay: Growth inhibition of wild type and MYC knockout rat fibroblasts; type: cell-based
# Description: We tested the top 13 active compounds in the first screen assay. […] More than half of the tested compounds show better growth inhibitory effect on MYC WT compared to MYC KO cells.
# [3] = In vitro metabolism with mouse S9 fraction; type: in vitro ADME
# Protocol: In vitro metabolism of NUCC-176242 and NUCC-176248 were tested using mouse liver microsomes and a mouse S9 fraction. (See FIG. 9).
# In vitro metabolism of NUCC-176242 and NUCC-176248 were tested using mouse liver microsomes and a mouse S9 fraction.
# [4] = Pharmacokinetics in mice after IV dosing; type: in vivo; details: 5 mg/kg intravenously
# Protocol: The pharmacokinetics of NUCC-176242 and NUCC-176248 were studied in mice by administering a dose of 5 mg/kg intravenously and measuring the plasma concentration versus time. (See FIG. 10).
# The pharmacokinetics of NUCC-176242 and NUCC-176248 were studied in mice by administering a dose of 5 mg/kg intravenously and measuring the plasma concentration versus time.
# [5] = tested on: MYC transcriptional activity (c-Myc E-box-luciferase reporter, MycCap cells); assay: MYC E-box luciferase reporter assay; type: cell-based; details: 4 hours of treatment
# In short: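 MycCap cells stably carrying c-Myc E-box-luciferase reporter, with CMV-luciferase MycCap-luc as counterpart, seeded 10000 cells/well and treated next day with serial compound dilutions. Luminescence read at 4 h immediately after adding 150 μg/ml luciferin.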
# [6] = tested on: PC3 prostate cancer cell line; assay: Proliferation assay of PC3 cells (MTS); type: cell-based; details: Myc dependent cell line
# Protocol: as §1
# MycCap tumor [7] = assay: MycCap FVB allograft model; type: in vivo, FVB mice; details: mouse prostate cancer allograft, intra-peritoneally
# Protocol: FVB mice were inoculated with 1×10^6 of MycCap cells in 100 ul of matrigel subcutaneously on both flanks of the mice. When tumor size reached average size of 150 mm^3, mice were randomized based on tumor volume to 2 groups. Mice were administered with 50 mg/kg of 361 or vehicle(Veh) twice daily intra-peritoneally for two days. The treatment was suspended for 10 day, and initiated the treatment with a lower dose […] daily for another 9 days. Tumor size was measured twice a week during the experiment. (See FIG. 15).
# MycCap tumor [8] = assay: MycCap FVB allograft model, combination with anti-PD-1 immunotherapy; type: in vivo, FVB mice; details: combination with anti-PD-1 antibody
# Protocol: MycCap FVB allograft model was treated with 361 (50 mg/kg) for two days, following by two days of anti-PD-1 antibody (100 ug/day), and kept this 4-day treatment cycle for 4 cycles. (See FIG. 16).
# MV411 cells xenograft = assay: AML xenograft model, combination with Ara-C; type: in vivo, CB17 SCID mice; details: AML mice xenograft
# Protocol: CB17 SCID mice were inoculated with MV411 cells at the density of 5×10^6 suspended in PBS and matrigel (1:1). The mice were randomized based on tumor volume into 6 different groups after the tumor reached ˜200 to 500 mm^3. The mice were treated either with vehicle, NU031, NU975 alone or in combination with cytarabine (Ara-C). […] (See FIG. 17).
# MYC/Max binding to DNA = MYC/Max binding to DNA (Homo sapiens, UniProt P01106); assay: Electrophoretic mobility shift assay (EMSA) of MYC/Max binding to DNA
# Protocol: We also tested our best hit compound Min9 (NUCC-0176234) and newly synthesized analogs for effects of these compounds on MYC/Max binding to DNA in electrophoretic mobility shift assays (EMSAs). (See FIG. 5a and FIG. 5b). We expected the active compounds to impair MYC/Max binding to DNA. Several structural analogs of Min9 were tested over multiple doses for inhibiting MYC-DNA binding and we observed a dose-dependent inhibition. (See FIG. 5c).
# [9] = tested on: cMYC wild-type (WT) and cMYC KO line; assay: Cell viability assay, cMYC wild-type line versus cMYC KO line; type: cell-based
# Protocol: Min9 (NUCC-0176234) was also tested in a cell viability assay against a cMYC wild-type (WT) and a cMYC KO line.
# DNA damage (rH2AX) = assay: rH2AX staining assay for DNA damage; type: cell-based
# Protocol: Min9 (NUCC-0176234) was also tested for its ability to cause DNA damage in an rH2AX staining assay. We would not expect cMYC-targeting agents to produce significant DNA damage. Compounds that act directly against DNA such as doxorubicin do however. […] (See FIG. 6).
# Sequence of MYC/Max binding to DNA (P01106 whole entry): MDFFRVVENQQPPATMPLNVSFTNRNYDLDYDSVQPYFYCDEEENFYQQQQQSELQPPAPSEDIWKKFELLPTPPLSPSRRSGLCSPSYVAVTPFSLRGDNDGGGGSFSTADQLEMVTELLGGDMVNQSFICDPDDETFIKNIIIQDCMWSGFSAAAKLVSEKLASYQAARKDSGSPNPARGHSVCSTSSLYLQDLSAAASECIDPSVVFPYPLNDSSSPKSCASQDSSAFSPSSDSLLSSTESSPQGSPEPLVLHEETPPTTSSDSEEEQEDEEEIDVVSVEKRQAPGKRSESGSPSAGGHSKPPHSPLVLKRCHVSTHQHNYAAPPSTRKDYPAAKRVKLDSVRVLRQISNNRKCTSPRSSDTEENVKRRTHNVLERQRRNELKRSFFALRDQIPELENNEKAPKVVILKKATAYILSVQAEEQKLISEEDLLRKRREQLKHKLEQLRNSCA
smiles,measurement,setting,value
O=C1CCC(N2C(=O)c3cccc(OCc4cn(CCOCCOCCOCC(=O)Nc5ccc(COc6ccc(-c7cc(C(F)(F)F)n[nH]7)c(O)c6-c6cc(C(F)(F)F)cc(C(F)(F)F)c6)cc5)nn4)c3C2=O)C(=O)N1 (centres unmarked) [NUCC-0201202],Potency code,[1],+++ (10-30 +++)
same,IC50,MycCap cells,4 µM
same,IC50,PC12 cells,23.1 µM
CC(C)CCOc1ccc(-c2cc(C(F)(F)F)n[nH]2)c(O)c1-c1cc(C(F)(F)F)cc(C(F)(F)F)c1 [NUCC-0201198],Potency code,[1],+++ (10-30 +++)
same,IC50,"MycCap cells; Mus musculus, Myc-CaP",2.6 µM
same,IC50,"PC12 cells; Rattus norvegicus, PC-12",8.2 µM
CCc1ccc(Oc2c(-c3ccc(OCc4ccncc4)cc3O)n[nH]c2C(F)(F)F)cc1 [NUCC-0176250],Potency code,[1],+ (>40 +)
same,"selectivity of growth inhibition, MYC WT versus MYC KO",[2],great selectivity
CCc1ccc(Oc2c(-c3ccc(OCc4ccc(Cl)cc4)cc3O)n[nH]c2C(F)(F)F)cc1 [NUCC-0176242],Potency code,[1],++ (30-40 ++)
same,metabolism by mouse S9 fraction,[3],significantly metabolism by the mouse S9 fraction versus NUCC-176248
same,in vivo metabolism (plasma concentration versus time),[4],correlated well with the observed in vitro metabolism
O=C1CCC(N2C(=O)c3cccc(OCc4cn(CCOCCOCCOCCOCC(=O)Nc5ccc(COc6ccc(-c7cc(C(F)(F)F)n[nH]7)c(O)c6-c6cc(C(F)(F)F)cc(C(F)(F)F)c6)cc5)nn4)c3C2=O)C(=O)N1 (centres unmarked) [NUCC-0201203],Potency code,[1],++ (30-40 ++)
same,IC50,MycCap cells,32.4 µM
Cn1nc(C(F)(F)F)cc1-c1ccc(OCc2ccc(Cl)cc2)c(-c2cc(C(F)(F)F)cc(C(F)(F)F)c2)c1O [compound 361],c-Myc transcription activity,[5],inhibits c-Myc transcription activity as an early event before affecting cell viability
same,proliferation of PC3,[6],specifically inhibits proliferation
same,tumor volume,MycCap tumor [7],reduces tumor volume
same,tumor progression,MycCap tumor [8],significantly blocks tumor progression
CCc1ccc(Oc2c(-c3ccc(OCc4ccc(Cl)cc4)cc3O)nn(C)c2C(F)(F)F)cc1 [NUCC-0176248],Potency code,[1],+ (>40 +)
same,in vivo metabolism (plasma concentration versus time),[4],correlated well with the observed in vitro metabolism
same,"selectivity of growth inhibition, MYC WT versus MYC KO",[2],high specificity
Cn1nc(C(F)(F)F)cc1-c1ccc(OCc2ccc(Cl)cc2)c(-c2ccc(Cl)c(C(F)(F)F)c2)c1O [compound 975],anti-tumor effect in combination with Ara-C,MV411 cells xenograft,significant synergic anti-tumor effect
CCc1ccc(Oc2c[nH]nc2-c2ccc(OCc3cnn(-c4ccccc4)c3)cc2O)cc1 [NUCC-0176234],Potency code,[1],+ (>40 +)
same,inhibition of MYC/Max (c-MYC) binding to DNA,MYC/Max binding to DNA; in words,prevent c-MYC/DNA binding
same,"cell viability, WT line versus KO cells",[9],reduces cell viability much more in the WT line than the KO cells
same,DNA damage,DNA damage (rH2AX),essentially no DNA damage
Cn1nc(C(F)(F)F)cc1-c1ccc(OCc2ccc(Cl)cc2)c(-c2ccc(Cl)c(C(F)(F)F)c2)c1O [NU975],anti-tumor effect in combination with Ara-C,MV411 cells xenograft,significant difference compared to control group
CCc1ccc(Oc2c(-c3ccc(OCc4cccc(Cl)c4)cc3O)n[nH]c2C(F)(F)F)cc1 [NUCC-0196295],Potency code,[1],+++ (10-30 +++)
same,IC50,MYC/Max binding to DNA,66.8 µM
CCCCOc1ccc(-c2cc(C(F)(F)F)n[nH]2)c(O)c1-c1cc(C(F)(F)F)cc(C(F)(F)F)c1 [NU031],anti-tumor effect in combination with Ara-C,MV411 cells xenograft,significant difference compared to control group
